Values quoted from earlier work as cited in patent US8901111B2, “Aryl-substituted heterocyclic urea modulators of fatty acid amide hydrolase” (Janssen Pharmaceutica NV, priority 2009, dated 2014).

Assays:
[1] = test system: spasticity; settings: Baker 2001; cited from earlier work
[2] = test system: acute thermal nociception; settings: rats; WO 02/087569; cited from earlier work
[3] = test system: neuropathic pain; settings: rats; WO 02/087569; cited from earlier work
[4] = test system: thermal nociception; settings: cited from earlier work
[5] = test system: thermal nociception; settings: rats; WO 04/033652; cited from earlier work
[6] = target: T1, FAAH (Homo sapiens, UniProt O00519); settings: reported; cited from earlier work
T1 sequence (O00519 1-579): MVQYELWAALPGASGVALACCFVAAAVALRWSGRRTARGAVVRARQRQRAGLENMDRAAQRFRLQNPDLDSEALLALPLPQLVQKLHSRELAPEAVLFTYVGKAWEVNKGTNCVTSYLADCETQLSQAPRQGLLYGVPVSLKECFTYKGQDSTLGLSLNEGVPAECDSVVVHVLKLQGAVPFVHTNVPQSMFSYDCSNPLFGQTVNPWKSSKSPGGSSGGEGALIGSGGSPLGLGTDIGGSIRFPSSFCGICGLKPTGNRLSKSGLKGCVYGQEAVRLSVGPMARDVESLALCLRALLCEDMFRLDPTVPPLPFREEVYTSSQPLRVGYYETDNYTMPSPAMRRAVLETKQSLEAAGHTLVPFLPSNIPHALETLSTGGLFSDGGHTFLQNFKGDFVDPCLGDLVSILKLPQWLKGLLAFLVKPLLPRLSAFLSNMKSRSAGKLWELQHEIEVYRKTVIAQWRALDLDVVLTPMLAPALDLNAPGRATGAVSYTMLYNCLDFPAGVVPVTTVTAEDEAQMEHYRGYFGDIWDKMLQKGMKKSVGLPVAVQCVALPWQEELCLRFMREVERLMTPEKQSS

[7] = Kathuria 2003; cited from earlier work
[8] = test system: anxiety; settings: rats; Kathuria 2003; cited from earlier work

## CCCCCCCCCCCCCCCCS(=O)(=O)F [AM374]
[1]
  spasticity in CREAE mice: significantly reduce spasticity

## Cc1nc(-c2ccccc2)c(-c2ccccc2)n1CCCCCCNC(=O)Oc1ccccc1F [BMS-1]
[2]
  analgesic effect in Hargraves test: analgesic effect
[3]
  analgesic effect in Chung spinal nerve ligation model: analgesic effect

## O=C(CCCCCCc1ccccc1)c1ncc(-c2ccccn2)o1 [OL-135]
[4]; rats, WO 04/033652
  analgesic activity in hot plate test: analgesic activity
[5]
  analgesic activity in tail emersion test: analgesic activity
[6]
  inhibition of FAAH: potent inhibitor

## NC(=O)c1cccc(-c2cccc(OC(=O)NC3CCCCC3)c2)c1 [URB-597]
[7]
  analgesic efficacy in rat formalin test: analgesic efficacy
[4]; rat, Kathuria 2003
  analgesic efficacy in rat hot plate test: analgesic efficacy
[8]
  efficacy in zero plus maze model of anxiety: efficacy
